As a reminder, the IC50 is the concentration that inhibits the measured activity by half. Read a high IC50 as weaker potency in that assay.

The values that follow come from patent US20240383904A1, “HETEROCYCLIC COMPOUNDS” (Hoffmann-La Roche Inc., priority 2021, published 2024).

The target in this experiment is T1, MAGL (Homo sapiens, UniProt Q99685).
T1 sequence (Q99685 1-303): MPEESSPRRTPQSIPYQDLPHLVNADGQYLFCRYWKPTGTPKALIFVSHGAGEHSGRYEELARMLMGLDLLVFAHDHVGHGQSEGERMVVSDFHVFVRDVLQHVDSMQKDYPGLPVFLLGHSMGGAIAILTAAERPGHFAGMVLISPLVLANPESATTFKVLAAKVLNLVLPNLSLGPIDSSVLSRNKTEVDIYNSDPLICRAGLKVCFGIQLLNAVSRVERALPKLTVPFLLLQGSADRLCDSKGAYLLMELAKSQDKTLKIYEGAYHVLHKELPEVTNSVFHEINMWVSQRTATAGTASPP
Nature of the experiment: 2-AG assay: MAGL inhibitory activity by hydrolysis of 2-arachidonoylglycerol to arachidonic acid, followed by mass spectrometry. Type of experiment: biochemical. The conditions noted are these: 15 min preincubation, 30 min reaction at RT, 8 μM 2-arachidonoylglycerol. The source says:
Compounds of formula (I) were profiled for MAGL inhibitory activity by determining the enzymatic activity by following the hydrolysis of the natural substrate 2-arachidonoylglycerol (2-AG) resulting in arachidonic acid, which can be followed by mass spectrometry. This assay is hereinafter abbreviated “2-AG assay”.
Compounds of formula (I) were profiled for MAGL inhibitory activity by determining the enzymatic activity by following the hydrolysis of the natural substrate 2-arachidonoylglycerol (2-AG) resulting in arachidonic acid, which can be followed by mass spectrometry. This assay is hereinafter abbreviated “2-AG assay”. The 2-AG assay was carried out in 384 well polypropylene assay plates. Compound dilutions were made in 100% DMSO in a polypropylene plate in 3-fold dilution steps to give a final concentration range in the assay from 12.5 μM to […]. Compound dilutions were added to MAGL protein in assay buffer (50 mM TRIS, 1 mM EDTA, 0.01% (v/v) Tween-20, 2.5% (v/v) DMSO). After shaking, the plate was incubated for 15 min at RT. To start the reaction, 2-arachidonoylglycerol in assay buffer was added. The final concentrations in the assay was […] for MAGL protein and 8 μM 2-arachidonoylglyerol. After shaking and 30 min incubation at RT, the reaction was quenched by the addition of two assay volumes of acetonitrile containing 4 μM of d8-arachidonic acid. The amount of arachidonic acid formed was traced by an online SPE system (Agilent Rapidfire) coupled to a triple quadrupole mass spectrometer. A C18 SPE cartridge (Agilent G9205A) was used in an acetonitrile/water liquid setup. The mass spectrometer was operated in negative electrospray mode following the mass transitions 303.1→259.1 for arachidonic acid and 311.1→267.0 for d8-arachidonic acid. The activity of the compounds was calculated based on the ratio of intensities [arachidonic acid/d 8-arachidonic acid].

The structures appear in SMILES notation.

For `O=C1NC2(CO1)CN(C(=O)N1CC3(CC(Nc4ccc(C(F)(F)F)nn4)C3)C1)C2` [Example 51, 2-[6-[[6-(trifluoromethyl)pyrida-zin-3-yl]amino]-2-azaspiro[3.3]heptane-2-carbonyl]-7-oxa-2,5-diazaspiro[3.4]octan-6-one], the IC50 amounted to 24 nM.
`O=C1NC2(CCO1)CN(C(=O)N1CC3(CC(NS(=O)(=O)c4cccc(C(F)(F)F)c4)C3)C1)C2` [Example 52, N-[2-(6-keto-7-oxa-2,5-diazaspiro[3.5]nonane-2-carbonyl)-2-azaspiro[3.3]heptan-6-yl]-3-(trifluoromethyl)benzene-sulfonamide] gave an IC50 of 742 nM.
For `O=C1NC2(CO1)CN(C(=O)N1CC3(CC(Cn4cc(C(F)(F)F)cn4)C3)C1)C2` [Example 53, 2-[6-[[4-(trifluoromethyl)pyrazol-1-y1]methyl]-2-azaspiro[3.3]heptane-2-carbonyl]-7-oxa-2,5-diazaspiro[3.4]octan-6-one] the value was 0.44 nM; for `O=C1CCC2(CN(C(=O)N3CC4(CC(Cn5cc(C(F)(F)F)cn5)C4)C3)C2)N1` [Example 54, 2-[6-[[4-(trifluoromethyl)pyrazol-1-y1]methyl]-2-azaspiro[3.3]heptane-2-carbonyl]-2,5-diazaspiro[3.4]octan-6-one], 9.37 nM.
Turning to `O=C1CCC2(CN(C(=O)N3CC4(CC(NS(=O)(=O)c5cccc(C(F)(F)F)c5)C4)C3)C2)N1` [Example 55, N-[2-(6-keto-2,5-diazaspiro[3.4]octane-2-carbonyl)-2-azaspiro[3.3]heptan-6-yl]-3-(trifluoromethyl)benzen esulfonamide], the IC50 stood at 9.81 nM.
In the case of `O=C1NC2(CO1)CN(C(=O)N1CC3(CC(n4cnc(C5CC5)n4)C3)C1)C2` [Example 56, 2-[6-(3-cyclopropyl-1,2,4-triazol-1-yl)-2-azaspiro[3.3]heptane-2-carbonyl]-7-oxa-2,5-diazaspiro[3.4]octan-6-one] it was 12.9 nM; in that of `O=C1CCC2(CN(C(=O)N3CC4(CC(Cc5nc(C(F)(F)F)ns5)C4)C3)C2)N1` [Example 57, 2-[6-[[3-(trifluoromethyl)-1,2,4-thiadiazol-5-y1]methyl]-2-azaspiro[3.3]heptane-2-carbonyl]-2,5-diazaspiro[3.4]octan-6-one], 13.4 nM; in that of `O=C1CCC2(CN(C(=O)N3CC4(CC(Cc5nc(C(F)(F)F)co5)C4)C3)C2)N1` [Example 58, 2-[6-[[4-(trifluoromethyl)oxazol-2-yl]methyl]-2-azaspiro[3.3]heptane-2-carbonyl]-2,5-diazaspiro[3.4]octan-6-one], 17.3 nM.
In turn, `O=C1CCC2(CN(C(=O)N3CC4(CC(Cn5cnc(C(F)(F)F)c5)C4)C3)C2)N1` [Example 59, 2-[6-[[4-(trifluoromethyl)imidazol-1-yl]methyl]-2-azaspiro[3.3]heptane-2-carbonyl]-2,5-diazaspiro[3.4]octan-6-one] yielded an IC50 of 36.6 nM.
`O=C1CCC2(CN(C(=O)N3CC4(CCC(Cc5ccc(C(F)(F)F)cn5)CC4)C3)C2)N1` [Example 60, 2-[7-[[5-(trifluoromethyl)-2-pyridyl]methyl]-2-azaspiro[3.5]nonane-2-carbonyl]-2,5-diazaspiro[3.4]octan-6-one] came in with an IC50 of 0.74 nM.
Consider `O=C1NC2(CO1)CN(C(=O)N1CC3(CCC(Cc4ccc(C(F)(F)F)cn4)CC3)C1)C2` [Example 61, 2-[7-[[5-(trifluoromethyl)-2-pyridyl]methyl]-2-azaspiro[3.5]nonane-2-carbonyl]-7-oxa-2,5-diazaspiro[3.4]octan-6-one], for which the IC50 turned out to be 0.19 nM.
In the case of `O=C1NC2(CO1)CN(C(=O)N1CC3(CCC(OCC4(C(F)(F)F)CC4)CC3)C1)C2` [Example 62, 2-[7-[[1-(trifluoromethyl)cyclopro-pyl]methoxy]-2-azaspiro[3.5]nonane-2-carbonyl]-7-oxa-2,5-diazaspiro[3.4]octan-6-one] it was 0.98 nM; in that of `O=C1NC2(CO1)CN(C(=O)N1CC3(CC(c4cnc(C(F)(F)F)cn4)C3)C1)C2` [Example 63, 2-[6-[5-(trifluoromethyl)pyrazin-2-yl]-2-azaspiro[3.3]heptane-2-carbonyl]-7-oxa-2,5-diazaspiro[3.4]octan-6-one], 1.28 nM.
For `O=C1NC2(CO1)CN(C(=O)N1CC3(CC(OCC4(C(F)(F)F)CC4)C3)C1)C2` [Example 64, 2-[6-[[1-(trifluoromethyl)cyclopro-pyl]methoxy]-2-azaspiro[3.3]heptane-2-carbonyl]-7-oxa-2,5-diazaspiro[3.4]octan-6-one] the value was 1.28 nM; for `O=C1NC2(CO1)CN(C(=O)N1CC3(CC(NC4(C(F)(F)F)CC4)C3)C1)C2` [Example 65, 2-[6-[[1-(trifluoromethyl)cyclopro-pyl]amino]-2-azaspiro[3.3]heptane-2-carbonyl]-7-oxa-2,5-diazaspiro[3.4]octan-6-one], 1.85 nM.
On to `O=C1CCC2(CN(C(=O)N3CC4(CC(Cn5cnc(C(F)(F)F)n5)C4)C3)C2)N1` [Example 66, 2-[6-[[3-(trifluoromethyl)-1,2,4-triazol-1-yl]methyl]-2-carbonyl]-2,5-diazaspiro[3.4]octan-6-one], for which the IC50 amounted to 29.9 nM.
In the case of `O=C1NC2(CO1)CN(C(=O)N1CC3(CC(C(=O)NC4(C(F)(F)F)CC4)C3)C1)C2` [Example 67, 2-(6-keto-7-oxa-2,5-diazaspiro[3.4]octane-carbonyl)-N-[1-(trifluoromethyl)cyclopro-pyl]-2-azaspiro[3.3]heptane-6-carboxamide] it was 88.6 nM.
In the case of `O=C1NC2(CO1)CN(C(=O)N1CC3(CCC(Oc4ccnc(C(F)(F)F)n4)CC3)C1)C2` [Example 68, 2-[7-[2-(trifluoromethyl)pyrimi-din-4-yl]oxy-2-azaspiro[3.5]nonane-2-carbonyl]-7-oxa-2,5-diazaspiro[3.4]octan-6-one] it was 2.13 nM; in that of `O=C1NC2(CO1)CN(C(=O)N1CC3(CCC(Oc4cnc(C(F)(F)F)cn4)CC3)C1)C2` [Example 69, 2-[7-[5-(trifluoromethyl)pyrazin-2-yl]oxy-2-azaspiro[3.5]nonane-2-carbonyl]-7-oxa-2,5-diazaspiro[3.4]octan-6-one], 0.83 nM; in that of `O=C1NC2(CO1)CN(C(=O)N1CC3(CC(Oc4cnc(C(F)(F)F)cn4)C3)C1)C2` [Example 70, 2-[6-[5-(trifluoromethyl)pyrazin-2-yl]oxy-2-azaspiro[3.3]heptane-2-carbonyl]-7-oxa-2,5-diazaspiro[3.4]octan-6-one], 3.68 nM.
For `O=C1NC2(CO1)CN(C(=O)N1CC3(CCC(Oc4cnc(C(F)(F)F)cn4)C3)C1)C2` (stereo not drawn) [Example 71, 2-[6-[5-(trifluoromethyl)pyrazin-2-yl]oxy-2-azaspiro[3.4]octane-2-carbonyl]-7-oxa-2,5-diazaspiro[3.4]octan-6-one] the value was 3.29 nM; for `CS(=O)(=O)c1ccc(CC2CCC3(C2)CN(C(=O)N2CC4(COCC(=O)N4)C2)C3)cc1` (stereo not drawn) [Example 72, 2-[6-(4-mesylbenzyl)-2-azaspiro[3.4]octane-2-carbonyl]-8-oxa-2,5-diazaspiro[3.5]nonan-6-one], 98.2 nM.
The compound `O=C1CCC2(CN(C(=O)N3CC4(CC(Oc5ccc(C(F)(F)F)nn5)C4)C3)C2)N1` [Example 75, 2-[6-[6-(trifluoromethyl)pyridazin-3-yl]oxy-2-azaspiro[3.3]heptane-2-carbonyl]-2,5-diazaspiro[3.4]octan-6-one] returned an IC50 of 271 nM. Against the preceding compound, the IC50 is about 2.8-fold higher.
`O=C1NC2(CO1)CN(C(=O)N1CC3(CC(Oc4ccc(C(F)(F)F)nn4)C3)C1)C2` [Example 76, 2-[6-[6-(trifluoromethyl)pyrida-zin-3-yl]oxy-2-azaspiro[3.3]heptane-2-carbonyl]-7-oxa-2,5-diazaspiro[3.4]octan-6-one] had an IC50 of 8.33 nM.
For `CS(=O)(=O)c1ccc(CC2CCC3(C2)CN(C(=O)N2CC4(COC(=O)N4)C2)C3)cc1` (stereo not drawn) [Example 77, 2-[6-(4-mesylbenzyl)-2-azaspiro[3.4]octane-2-carbonyl]-7-oxa-2,5-diazaspiro[3.4]octan-6-one] the value was 0.91 nM; for `O=C1NC2(CO1)CN(C(=O)N1CC3(CC(c4cnc(C(F)(F)F)nc4)C3)C1)C2` [Example 78, 2-[6-[2-(trifluoromethyl)pyrimi-din-5-yl]-2-azaspiro[3.3]heptane-2-carbonyl]-7-oxa-2,5-diazaspiro[3.4]octan-6-one], 2.3 nM; for `O=C1NC2(CO1)CN(C(=O)N1CC3(CC(c4ccc(C(F)(F)F)nc4)C3)C1)C2` [Example 79, 2-[6-[6-(trifluoromethyl)-3-pyridyl]-2-azaspiro[3.3]heptane-2-carbonyl]-7-oxa-2,5-diazaspiro[3.4]octan-6-one], 3.79 nM.
